Here are results for eight cell lines from the supplement of paper PMC10307832.

Holding throughout (experiment): relative viability (nuclei count vs DMSO), 5 days (fraction); higher = more cells survive
Compound in one assay: C(C(=O)C(=O)O)Br [Bromopyruvate]
Summed up: (§1)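 Hoechst staining, done together with fixation and permeabilisation, marked nuclei for 4× imaging and MetaXpress counting. This followed 5 days without medium change after lung cancer cell lines, kept overnight at 37 °C in 1536-well plates, were pinned with five library-drug doses (not always all listed) spaced by √10 on vehicle-anchored plates. Viability is the ratio of treated-well to vehicle-well nuclei, expressed as a median across plates. Plates passed only at control CV below 25% with at least one doubling.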

Compound in a further assay: CC(O)(CS(=O)(=O)c1ccc(F)cc1)C(=O)Nc1ccc(C#N)c(C(F)(F)F)c1 [Bicalutamide]
Summed up: as §1

Compound in assay [1]: C(C(=O)C(=O)O)Br [Bromopyruvate] + Cc1nc(NC(=O)N2CCC[C@H]2C(N)=O)sc1-c1ccnc(C(C)(C)C(F)(F)F)c1 [Alpelisib] (partner 2 µM)
In a few lines: (§2)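 Lung cancer cell lines in 1536-well plates got either a single drug or a fixed anchor-drug dose together with five library-drug doses (not always all listed) in √10 steps, by pin tool, on the day after seeding. Nuclei were counted after 5 days, and relative viability is the treated-to-vehicle ratio of nuclei counts. Values are medians of duplicate plates.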

Compound in assay [2]: CC(O)(CS(=O)(=O)c1ccc(F)cc1)C(=O)Nc1ccc(C#N)c(C(F)(F)F)c1 [Bicalutamide] + Nc1nc2[nH]cc(CCc3ccc(C(=O)N[C@@H](CCC(=O)O)C(=O)O)cc3)c2c(=O)[nH]1 [Pemetrexed] (partner 0.2 µM)
Summed up: as §2

Consider HCC-366, for which the relative viability came out at 0.996 with Bromopyruvate (1 µM); 0.979 with Bromopyruvate (3.162 µM); 1.05 with Bromopyruvate (10 µM); 1.02 with Bromopyruvate (31.62 µM); 0.998 with Bromopyruvate (100 µM); 1.01 in the assay with Bicalutamide (0.08 µM). Moreover, the relative viability in the assay with Bicalutamide (0.253 µM) worked out at 0.95; with Bicalutamide (0.8 µM), 1.06; with Bicalutamide (2.53 µM) it was 1.01; in assay [1] (first compound 1 µM), 0.494; in assay [1] (first compound 3.162 µM), 0.403; in assay [1] (first compound 10 µM), 0.503. The relative viability was found to be 0.519 in assay [1] (first compound 31.62 µM); 0.41 in assay [1] (first compound 100 µM); 0.16 in assay [2] (first compound 0.08 µM); 0.189 in assay [2] (first compound 0.253 µM); 0.191 in assay [2] (first compound 0.8 µM); 0.163 in assay [2] (first compound 2.53 µM).
As for HCC-827, the relative viability amounted to 1.04 with Bromopyruvate (1 µM); 1.02 in the assay with Bromopyruvate (3.162 µM); 0.988 with Bromopyruvate (10 µM); 1.06 in the assay with Bromopyruvate (31.62 µM); 1.07 with Bromopyruvate (100 µM); 1.08 in the assay with Bicalutamide (0.08 µM). For the same cell line, the relative viability in the assay with Bicalutamide (0.253 µM) came to 0.842; in the assay with Bicalutamide (0.8 µM) it was 1.07; with Bicalutamide (2.53 µM), 1.03; in assay [1] (first compound 1 µM) it was 1.03; in assay [1] (first compound 3.162 µM), 0.988; in assay [1] (first compound 10 µM), 0.972. The relative viability in assay [1] (first compound 31.62 µM) is 1.02; in assay [1] (first compound 100 µM), 0.967; in assay [2] (first compound 0.08 µM) it was 0.261; in assay [2] (first compound 0.253 µM) it was 0.218; in assay [2] (first compound 0.8 µM), 0.289; in assay [2] (first compound 2.53 µM), 0.306.
For the cell line HOP-62, the relative viability with Bromopyruvate (1 µM) is 1.06; with Bromopyruvate (3.162 µM) it was 0.981; with Bromopyruvate (10 µM), 0.936; in the assay with Bromopyruvate (31.62 µM), 1.03; with Bromopyruvate (100 µM) it was 1.03; in the assay with Bicalutamide (0.08 µM), 1.12. For the same cell line, the relative viability is 0.988 with Bicalutamide (0.253 µM); 1.06 with Bicalutamide (0.8 µM); 1.03 with Bicalutamide (2.53 µM); 0.696 in assay [1] (first compound 1 µM); 1.06 in assay [1] (first compound 3.162 µM); 0.426 in assay [1] (first compound 31.62 µM). In addition, the relative viability is 0.698 in assay [1] (first compound 100 µM); 0.371 in assay [2] (first compound 0.08 µM); 0.289 in assay [2] (first compound 0.253 µM); 0.277 in assay [2] (first compound 0.8 µM); 0.327 in assay [2] (first compound 2.53 µM).
LC-2-ad: the relative viability amounted to 1.01 in the assay with Bromopyruvate (1 µM); 0.985 with Bromopyruvate (3.162 µM); 1.03 with Bromopyruvate (10 µM); 0.924 in the assay with Bromopyruvate (31.62 µM); 0.964 in the assay with Bromopyruvate (100 µM); 1.09 with Bicalutamide (0.08 µM). Moreover, the relative viability is 0.935 with Bicalutamide (0.253 µM); 1.08 with Bicalutamide (0.8 µM); 0.986 with Bicalutamide (2.53 µM); 0.925 in assay [1] (first compound 1 µM); 0.919 in assay [1] (first compound 3.162 µM); 0.839 in assay [1] (first compound 10 µM). For the same cell line, the relative viability in assay [1] (first compound 31.62 µM) amounted to 0.938; in assay [1] (first compound 100 µM) it was 0.893; in assay [2] (first compound 0.08 µM) it was 0.268; in assay [2] (first compound 0.253 µM) it was 0.256; in assay [2] (first compound 0.8 µM), 0.275; in assay [2] (first compound 2.53 µM), 0.267.
As to LCLC-97TM1, the relative viability with Bromopyruvate (1 µM) came out at 1.02; with Bromopyruvate (3.162 µM) it was 1.06; in the assay with Bromopyruvate (10 µM), 1; in the assay with Bromopyruvate (31.62 µM) it was 0.974; with Bromopyruvate (100 µM), 0.859; with Bicalutamide (0.08 µM), 1.04. Also, the relative viability with Bicalutamide (0.253 µM) turned out to be 0.974; in the assay with Bicalutamide (0.8 µM), 1.29; with Bicalutamide (2.53 µM), 0.862; in assay [1] (first compound 10 µM), 0.272; in assay [1] (first compound 31.62 µM), 0.302; in assay [1] (first compound 100 µM), 0.183. Moreover, the relative viability in assay [2] (first compound 0.08 µM) was 0.169; in assay [2] (first compound 0.253 µM) it was 0.173; in assay [2] (first compound 0.8 µM) it was 0.203; in assay [2] (first compound 2.53 µM) it was 0.181.
As to LCLC-103H, the relative viability with Bromopyruvate (1 µM) was determined as 0.953; with Bromopyruvate (3.162 µM) it was 0.992; with Bromopyruvate (10 µM) it was 1.11; with Bromopyruvate (31.62 µM) it was 0.994; in the assay with Bromopyruvate (100 µM), 0.976; with Bicalutamide (0.08 µM), 0.986. Further, the relative viability with Bicalutamide (0.253 µM) was found to be 0.971; with Bicalutamide (0.8 µM), 1.08; with Bicalutamide (2.53 µM), 0.918; in assay [1] (first compound 1 µM) it was 0.981; in assay [1] (first compound 3.162 µM) it was 0.938; in assay [1] (first compound 10 µM), 1.01. In addition, the relative viability came out at 0.95 in assay [1] (first compound 31.62 µM); 0.985 in assay [1] (first compound 100 µM); 0.446 in assay [2] (first compound 0.08 µM); 0.408 in assay [2] (first compound 0.253 µM); 0.469 in assay [2] (first compound 0.8 µM); 0.462 in assay [2] (first compound 2.53 µM).
For the cell line LK-2, the relative viability in the assay with Bromopyruvate (1 µM) turned out to be 0.98; with Bromopyruvate (3.162 µM), 1.02; with Bromopyruvate (10 µM), 1.11; with Bromopyruvate (31.62 µM), 0.936; with Bromopyruvate (100 µM), 0.832; with Bicalutamide (0.08 µM), 0.961. Moreover, the relative viability in the assay with Bicalutamide (0.253 µM) stood at 0.825; with Bicalutamide (0.8 µM) it was 1.31; with Bicalutamide (2.53 µM), 1.02; in assay [1] (first compound 1 µM) it was 0.565; in assay [1] (first compound 3.162 µM), 0.991; in assay [1] (first compound 10 µM) it was 1.14. The relative viability in assay [1] (first compound 31.62 µM) is 1.16; in assay [1] (first compound 100 µM), 1.22; in assay [2] (first compound 0.08 µM), 0.233; in assay [2] (first compound 0.253 µM), 0.273; in assay [2] (first compound 0.8 µM) it was 0.379; in assay [2] (first compound 2.53 µM), 0.303.
Turning to LOU-NH91, the relative viability in the assay with Bromopyruvate (1 µM) worked out at 1.09; with Bromopyruvate (3.162 µM) it was 1.01; with Bromopyruvate (10 µM) it was 0.973; with Bromopyruvate (31.62 µM), 0.984; with Bromopyruvate (100 µM), 1.01; in the assay with Bicalutamide (0.08 µM), 1.09. In addition, the relative viability came to 0.765 in the assay with Bicalutamide (0.253 µM); 1.05 with Bicalutamide (0.8 µM); 1.04 in the assay with Bicalutamide (2.53 µM); 0.764 in assay [1] (first compound 1 µM); 0.732 in assay [1] (first compound 3.162 µM); 0.721 in assay [1] (first compound 10 µM). Moreover, the relative viability in assay [1] (first compound 31.62 µM) was determined as 0.775; in assay [1] (first compound 100 µM), 0.868; in assay [2] (first compound 0.08 µM) it was 0.429; in assay [2] (first compound 0.253 µM) it was 0.379; in assay [2] (first compound 0.8 µM), 0.39; in assay [2] (first compound 2.53 µM), 0.378.
